Data as given in patent publication US20210293825A1, “METHODS FOR PRECISION THERAPEUTIC TARGETING OF HUMAN CANCER CELL MOTILITY AND KITS THEREOF” (UNITED STATES GOVERNMENT AS REPRESENTED BY THE DEPARTMENT …, priority 2018, published 2021).

Legend:
HSP90β = target: T1, HSP90β (Homo sapiens, UniProt P08238); test: Biophysical binding assays and DARTS, isolated HSP90β; settings: ITC, thermal shift, biolayer interferometry, dynamic light scattering, DARTS
T1 construct: made in house; host or cells: Rosetta BL-21 E. coli
Method: Studies used purified recombinant HSP90β or CDC37. […] For DARTS assay, HSP90β or CDC37 were individually pre-incubated with KBU2046, thermolysin added, and reaction products were separated by SDS PAGE and visualized by silver stain (depicted above). NTco—no thermolysin control. However, when the DARTS assay was conducted with both HSP90β and CDC37 present, KBU2046 protected both proteins from degradation in a concentration-dependent manner (see, FIG. 5a).
DARTS provides a sensitive measure of ligand-induced changes in protein structure and dynamics by measuring the ability of a ligand to protect its target from protease digestion (Lomenick, B. et al., Proc Natl Acad Sci USA 106, 21984-9 (2009)). […] The intensity of the CDC37 band increased, that of the HSP90β degradation product decreased, and both effects were statistically significant, concentration-dependent and were evident at 10 nM. […] Further, these findings also indicate that KBU2046 is not acting as a classical HSP90 inhibitor.
Biophysical and Biochemical Binding Assays. […]

[1] = Pharmacokinetics after oral gavage or intravenous injection; assay type: in vivo, CD1 mice; settings: after a single oral dose
Method: Cohorts of N=12 athymic mice bearing human PCa PC3-M cell orthotopic implants (a), or of N=5 non-tumor bearing athymic mice (b), were treated with KBU2046 incorporated into chow, and resultant lung metastasis (a) or plasma KBU2046 concentration (b) measured. Values are the mean±SEM. The relationship between dose and metastasis was evaluated by two-sided ANOVA (a). FIG. 2c a comprehensive characterization of KBU2046 pharmacokinetics. CD1 mice were dosed with 100 mg KBU2046/kg via oral gavage or intravenous injection (iv), and blood collected at the indicated time points (data from mice dosed at 25 mg/kg are in FIG. 12, and corroborate 100 mg/kg findings). For each route and time point, N=3 mice were sampled. Individual data points are the resultant plasma concentrations from individual mice, and are the mean of N=2 measurements. The dotted horizontal line denotes a concentration of 24 nM, which was the concentration of KBU2046 measured in the blood of mice whose metastasis were suppressed by 92% (a-b). […]
KBU2046 Quantification and Pharmacokinetics. […]
Plasma KBU2046 concentrations were measured in duplicate by liquid chromatography-tandem mass spectrometry after sample preparation by solid-phase extraction. […] The mass-to-charge ratios of the precursor-to-product ion reactions monitored were 243.5→125.1 for KBU2046 and 257.0→165.0 for the internal standard. […]

T1 sequence (P08238 whole entry): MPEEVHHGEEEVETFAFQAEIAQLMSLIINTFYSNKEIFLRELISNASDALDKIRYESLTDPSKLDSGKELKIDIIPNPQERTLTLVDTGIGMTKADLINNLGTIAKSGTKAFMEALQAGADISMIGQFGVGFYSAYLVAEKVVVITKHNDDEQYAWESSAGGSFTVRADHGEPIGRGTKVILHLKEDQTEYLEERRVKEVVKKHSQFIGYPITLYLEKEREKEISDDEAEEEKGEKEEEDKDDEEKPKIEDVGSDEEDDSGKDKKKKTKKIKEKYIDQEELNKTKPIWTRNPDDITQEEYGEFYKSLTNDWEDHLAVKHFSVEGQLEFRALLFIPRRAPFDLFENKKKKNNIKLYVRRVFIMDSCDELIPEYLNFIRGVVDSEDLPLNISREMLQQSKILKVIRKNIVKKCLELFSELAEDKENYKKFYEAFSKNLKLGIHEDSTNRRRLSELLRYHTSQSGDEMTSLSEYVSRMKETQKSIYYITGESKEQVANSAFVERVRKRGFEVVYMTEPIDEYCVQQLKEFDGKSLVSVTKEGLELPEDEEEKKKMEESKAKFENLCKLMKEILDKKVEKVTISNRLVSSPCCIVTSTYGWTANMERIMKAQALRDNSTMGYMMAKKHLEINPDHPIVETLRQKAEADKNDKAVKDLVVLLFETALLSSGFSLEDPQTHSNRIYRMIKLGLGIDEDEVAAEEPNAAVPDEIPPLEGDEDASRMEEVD

O=C1c2ccccc2OCC1c1ccc(F)cc1 (racemic) [KBU2046, (±)-3(4-fluorophenyl)chroman-4-one]
binding to HSP90β (HSP90β): no evidence of KBU2046 binding | maintenance of plasma concentrations >24 nM [1]: 9.3 h
